The target of one data set is T1, Androgen receptor (AR) (Homo sapiens, UniProt P10275, T878A).
T1 construct: 5.5×10^5 LNCap cells were injected into each well of a 6-well plate; endogenous in cells; host or cells: LNCaP
T1 sequence (P10275 1-920 T878A): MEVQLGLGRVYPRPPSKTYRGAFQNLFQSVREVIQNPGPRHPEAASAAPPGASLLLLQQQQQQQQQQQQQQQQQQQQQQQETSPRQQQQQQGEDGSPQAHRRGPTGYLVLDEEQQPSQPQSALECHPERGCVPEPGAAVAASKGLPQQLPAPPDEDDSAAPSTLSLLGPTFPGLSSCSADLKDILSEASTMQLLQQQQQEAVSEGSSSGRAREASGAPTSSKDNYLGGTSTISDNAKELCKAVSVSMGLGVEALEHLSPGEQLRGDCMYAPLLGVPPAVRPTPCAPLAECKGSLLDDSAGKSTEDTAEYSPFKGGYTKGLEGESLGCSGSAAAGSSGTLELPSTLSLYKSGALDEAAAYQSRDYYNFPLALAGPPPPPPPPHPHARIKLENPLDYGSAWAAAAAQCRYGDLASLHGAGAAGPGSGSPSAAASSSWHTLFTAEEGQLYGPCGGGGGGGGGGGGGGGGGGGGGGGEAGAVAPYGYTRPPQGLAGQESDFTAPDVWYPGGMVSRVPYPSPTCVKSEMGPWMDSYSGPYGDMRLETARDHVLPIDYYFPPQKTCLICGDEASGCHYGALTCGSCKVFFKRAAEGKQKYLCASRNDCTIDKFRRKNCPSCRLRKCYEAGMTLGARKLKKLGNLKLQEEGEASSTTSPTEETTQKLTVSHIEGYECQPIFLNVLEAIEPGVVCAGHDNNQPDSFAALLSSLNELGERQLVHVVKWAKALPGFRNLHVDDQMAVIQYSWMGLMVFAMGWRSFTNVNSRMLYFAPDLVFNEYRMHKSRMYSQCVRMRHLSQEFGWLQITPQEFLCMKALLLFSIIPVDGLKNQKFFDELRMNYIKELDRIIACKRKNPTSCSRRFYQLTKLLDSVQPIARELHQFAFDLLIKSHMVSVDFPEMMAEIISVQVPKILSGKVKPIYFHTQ
Nature of the data set: Assessment of AR proteolytic activity (Western blotting of LNCap cell lysates). Format: cell-based. The settings on record: 24 hours of treatment, Western blotting quantified with Image J. An outline of the steps:
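LNCap cells seeded at 5.5×10^5 per well and treated with compound for 24 hours. Lysates prepared in RIPA buffer (pH 7.5, with protease inhibitors). AR protein levels assessed by Western blot with densitometric quantification.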
Background: A western blot detects proteins with antibodies after separation by electrophoresis.

SMILES strings stand for the structures.

The text below walks through data of US20240018123A1, “COMPOUND FOR INHIBITING OR DISINTEGRATING ANDROGEN RECEPTOR, AND PHARMACEUTICAL USE THEREOF” (KOREA RESEARCH INSTITUTE OF CHEMICAL TECHNOLOGY, priority 2020, published 2024).

As usually defined, the CC50 is the concentration giving 50% cytotoxicity. Low readings indicate greater toxicity to the cells, high ones lower toxicity to the cells.

For `CC1(C)C(NC(=O)c2ccc(N3CCN(CC4(O)CCN(C(=O)C5CN(c6ccc7nnn(C8CCC(=O)NC8=O)c(=O)c7c6)C5)CC4)CC3)cc2)C(C)(C)C1Oc1ccc(C#N)c(Cl)c1` (centres unmarked) [Example 56, N-((1r,3r)-3-(3-chloro-4-cyanophenoxy)-2,2,4,4-tetramethylcyclobutyl)-4-(4-((1-(1-(3-(2,6-dioxopiperidin-3-yl)-4-oxo-3,4-dihydrobenzo[d][1,2,3]triazin-6-yl)azetidine-3-carbonyl)-4-hydroxypiperidin-4-yl)methyl)piperazin-1-yl)benzamide], the “Degradation (1 μM treated in LNCaP, % AR remaining)” value at Androgen receptor (AR) was determined as 21.3%. Further, in the data set with VCaP cells, half-maximal cytotoxicity (CC50) was put at 36.1 nM.
Regarding `CC1(C)[C@H](NC(=O)c2ccc(N3CCN(CC4(O)CCN(C(=O)COc5ccc6nnn(C7CCC(=O)NC7=O)c(=O)c6c5)CC4)CC3)cc2)C(C)(C)[C@H]1Oc1ccc(C#N)c(Cl)c1` (some centres unmarked) [Example 54, N-((1r,3r)-3-(3-chloro-4-cyanophenoxy)-2,2,4,4-tetramethylcyclobutyl)-4-(4-((1-(2-((3-(2,6-dioxopiperidin-3-yl)-4-oxo-3,4-dihydrobenzo[d][1,2,3]triazin-6-yl)oxy)acetyl)-4-hydroxypiperidin-4-yl)methyl)piperazin-1-yl)benzamide], the “Degradation (1 μM treated in LNCaP, % AR remaining)” value on Androgen receptor (AR) was found to be 7.7%. For the same compound, half-maximal cytotoxicity with VCaP cells (CC50) was put at 553 nM.
In the same order, the values of `CC1(C)C(NC(=O)c2ccc(-c3cnn(C4CCN(CC5CCN(c6ccc7nnn(C8CCC(=O)NC8=O)c(=O)c7c6)CC5)CC4)c3)cc2)C(C)(C)C1Oc1ccc(C#N)c(Cl)c1` (centres unmarked) [Example 84, N-((1r,3r)-3-(3-chloro-4-cyanophenoxy)-2,2,4,4-tetramethylcyclobutyl)-4-(1-(1-((1-(3-(2,6-dioxopiperidin-3-yl)-4-oxo-3,4-dihydrobenzo[d][1,2,3]triazin-6-yl)piperidin-4-yl)methyl)piperidin-4-yl)-1H-pyrazol-4-yl)benzamide] are 18% and 15.4 nM.
In the same order, the values of `CC1(C)C(NC(=O)c2ccc(N3CCN(CC4(O)CCN(C(=O)CNc5ccc6nnn(C7CCC(=O)NC7=O)c(=O)c6c5)CC4)CC3)cc2)C(C)(C)C1Oc1ccc(C#N)c(Cl)c1` (centres unmarked) [Example 53, N-((1r,3r)-3-(3-chloro-4-cyanophenoxy)-2,2,4,4-tetramethylcyclobutyl)-4-(4-((1-((3-(2,6-dioxopiperidin-3-yl)-4-oxo-3,4-dihydrobenzo[d][1,2,3]triazin-6-yl)glycyl)-4-hydroxypiperidin-4-yl)methyl)piperazin-1-yl)benzamide] are 5.8% and 19.7 nM.
Regarding `CC1(C)[C@H](NC(=O)c2ccc(N3CCN(CCCC4CCN(c5ccc6nnn(C7CCC(=O)NC7=O)c(=O)c6c5)CC4)CC3)cc2)C(C)(C)[C@H]1Oc1ccc(C#N)c(Cl)c1` (some centres unmarked) [Example 48, N-((1r,3r)-3-(3-chloro-4-cyanophenoxy)-2,2,4,4-tetramethylcyclobutyl)-4-(4-(3-(1-(3-(2,6-dioxopiperidin-3-yl)-4-oxo-3,4-dihydrobenzo[d][1,2,3]triazin-6-yl)piperidin-4-yl)propyl)piperazin-1-yl)benzamide], the “Degradation (1 μM treated in LNCaP, % AR remaining)” value at Androgen receptor (AR) is given as 35.2%. Further, the CC50 with VCaP cells worked out at 77 nM.
Consider `CC1(C)C(NC(=O)c2ccc(C#CCC3CCN(c4ccc5nnn(C6CCC(=O)NC6=O)c(=O)c5c4)CC3)cc2)C(C)(C)C1Oc1ccc(C#N)c(Cl)c1` (centres unmarked) [Example 85, N-((1r,3r)-3-(3-chloro-4-cyanophenoxy)-2,2,4,4-tetramethylcyclobutyl)-4-(3-(1-(3-(2,6-dioxopiperidin-3-yl)-4-oxo-3,4-dihydrobenzo[d][1,2,3]triazin-6-yl)piperidin-4-yl)prop-1-yn-1-yl)benzamide], for which the “Degradation (1 μM treated in LNCaP, % AR remaining)” value on Androgen receptor (AR) stood at 21%. The compound further had a CC50 with VCaP cells of 171 nM.
The corresponding values for `CC1(C)C(NC(=O)c2ccc(N3CCN(C=C4CCN(C(=O)C5CN(c6ccc7nnn(C8CCC(=O)NC8=O)c(=O)c7c6)C5)CC4)CC3)cc2)C(C)(C)C1Oc1ccc(C#N)c(Cl)c1` (centres unmarked) [Example 66, N-((1r,3r)-3-(3-chloro-4-cyanophenoxy)-2,2,4,4-tetramethylcyclobutyl)-4-(4-((1-(1-(3-(2,6-dioxopiperidin-3-yl)-4-oxo-3,4-dihydrobenzo[d][1,2,3]triazin-6-yl)azetidine-3-carbonyl)piperidin-4-ylidene)methyl)piperazin-1-yl)benzamide] are 35% and 18.2 nM.
In the same order, the values of `CC1(C)[C@H](NC(=O)c2ccc(N3CC4CC3CN4CC3CCN(C(=O)C4CN(c5ccc6nnn(C7CCC(=O)NC7=O)c(=O)c6c5)C4)CC3)cc2)C(C)(C)[C@H]1Oc1ccc(C#N)c(Cl)c1` (some centres unmarked) [Example 73, N-((1r,3r)-3-(3-chloro-4-cyanophenoxy)-2,2,4,4-tetramethylcyclobutyl)-4-(5-((1-(1-(3-(2,6-dioxopiperidin-3-yl)-4-oxo-3,4-dihydrobenzo[d][1,2,3]triazin-6-yl)azetidine-3-carbonyl)piperidin-4-yl)methyl)-2,5-diazabicyclo[2.2.1]heptan-2-yl)benzamide] are 40% and 79.5 nM.
Take `CC1(C)C(NC(=O)c2ccc(N3CCN(CC4CCN(CC5CCN(c6ccc7nnn(C8CCC(=O)NC8=O)c(=O)c7c6)CC5)CC4)CC3)cc2)C(C)(C)C1Oc1ccc(C#N)c(Cl)c1` (centres unmarked) [Example 70, N-((1r,3r)-3-(3-chloro-4-cyanophenoxy)-2,2,4,4-tetramethylcyclobutyl)-4-(4-((1-((1-(3-(2,6-dioxopiperidin-3-yl)-4-oxo-3,4-dihydrobenzo[d][1,2,3]triazin-6-yl)piperidin-4-yl)methyl)piperidin-4-yl)methyl)piperazin-1-yl)benzamide]: the “Degradation (1 μM treated in LNCaP, % AR remaining)” value at Androgen receptor (AR) is recorded as 99%. The compound also gave a CC50 in the data set with VCaP cells of 205 nM.
The corresponding values for `CC1(C)C(NC(=O)c2ccc(N3CCN(C(=O)CN4CCN(c5ccc6nnn(C7CCC(=O)NC7=O)c(=O)c6c5)CC4)CC3)cc2)C(C)(C)C1Oc1ccc(C#N)c(Cl)c1` (centres unmarked) [Example 57, N-((1r,3r)-3-(3-chloro-4-cyanophenoxy)-2,2,4,4-tetramethylcyclobutyl)-4-(4-(2-(4-(3-(2,6-dioxopiperidin-3-yl)-4-oxo-3,4-dihydrobenzo[d][1,2,3]triazin-6-yl)piperazin-1-yl)acetyl)piperazin-1-yl)benzamide] are 13.3% and 225 nM.
For the compound `CC1(C)C(NC(=O)c2ccc(N3CCN(CCCOC4CCN(c5ccc6nnn(C7CCC(=O)NC7=O)c(=O)c6c5)CC4)CC3)cc2)C(C)(C)C1Oc1ccc(C#N)c(Cl)c1` (centres unmarked) [Example 39, N-((1r,3r)-3-(3-chloro-4-cyanophenoxy)-2,2,4,4-tetramethylcyclobutyl)-4-(4-(3-((1-(3-(2,6-dioxopiperidin-3-yl)-4-oxo-3,4-dihydrobenzo[d][1,2,3]triazin-6-yl)piperidin-4-yl)oxy)propyl)piperazin-1-yl)benzamide], on Androgen receptor (AR), the “Degradation (1 μM treated in LNCaP, % AR remaining)” value was found to be 2.1%. Also, the CC50 in the data set on VCaP cells stood at 86.6 nM.
With `CC1(C)C(NC(=O)c2ccc(C3CCN(CCOC4CCN(C(=O)C5CN(c6ccc7nnn(C8CCC(=O)NC8=O)c(=O)c7c6)C5)CC4)CC3)cc2)C(C)(C)C1Oc1ccc(C#N)c(Cl)c1` (centres unmarked) [Example 75, N-((1r,3r)-3-(3-chloro-4-cyanophenoxy)-2,2,4,4-tetramethylcyclobutyl)-4-(1-(2-((1-(1-(3-(2,6-dioxopiperidin-3-yl)-4-oxo-3,4-dihydrobenzo[d][1,2,3]triazin-6-yl)azetidine-3-carbonyl)piperidin-4-yl)oxy)ethyl)piperidin-4-yl)benzamide], the “Degradation (1 μM treated in LNCaP, % AR remaining)” value on Androgen receptor (AR) is recorded as 9%. This compound returned a CC50 with VCaP cells of 30.1 nM.
In the same order, the values of `CC1(C)C(NC(=O)c2ccc(-n3cc(CC4CCN(C(=O)C5CN(c6ccc7nnn(C8CCC(=O)NC8=O)c(=O)c7c6)C5)CC4)nn3)cc2)C(C)(C)C1Oc1ccc(C#N)c(Cl)c1` (centres unmarked) [Example 90, N-((1r,3r)-3-(3-chloro-4-cyanophenoxy)-2,2,4,4-tetramethylcyclobutyl)-4-(4-((1-(1-(3-(2,6-dioxopiperidin-3-yl)-4-oxo-3,4-dihydrobenzo[d][1,2,3]triazin-6-yl)azetidine-3-carbonyl)piperidin-4-yl)methyl)-1H-1,2,3-triazol-1-yl)benzamide] are 5% and 19.6 nM.
